≈ marks a conversion by molar mass, not a printed value. Where two headings read alike, the source gives them in different places.
Tests used:
Assay type in all cases: cell-based
C. albicans ATCC 90028 = assay: microbe, parasite or virus in culture
Experimental: (§1) The test organisms consisted of strains from the Micromyx collection. Reference isolates were originally received from the American Type Culture Collection (ATCC; Manassas, Va.). Organisms received at Micromyx were initially streaked for isolation on Sabouraud dextrose or potato dextrose agar. Colonies were picked by swab from the medium and resuspended in the appropriate broth containing cryoprotectant. The suspensions were aliquoted into cryogenic vials and maintained at −80° C. Prior to testing, Candida isolates were streaked from the frozen vials on Sabouraud dextrose agar. The yeast isolates were incubated at overnight at 35° C. before use. The fungal isolates were incubated at least 7 days on Sabouraud dextrose agar slants at 35° C. before harvesting.
(§2) Isolates were tested in RPMI medium (Catalog No. SH30011.04; Lot No. AWA92121B; HyClone Labs, Logan, Utah) which was prepared according to CLSI guidelines. The pH of the medium was adjusted to 7.0 with 1 N NaOH. The medium was sterile filtered using a 0.2 μm PES filter and stored at 4° C. until used.
(§3) The MIC assay method employed automated liquid handlers to conduct serial dilutions and liquid transfers. Automated liquid handlers included the Multidrop 384 (Labsystems, Helsinki, Finland), Biomek 2000 and Biomek FX (Beckman Coulter, Fullerton Calif.). The wells in columns 2-12 in standard 96-well microdilution plates (Costar 3795) were filled with 150 μl of the correct diluent (50% DMSO for investigational compounds, 100% DMSO for comparator compounds). These would become the mother plates' from which ‘daughter’ or test plates would be prepared. Stocks were diluted to 40× the desired top concentration in the test plates in the indicated solvent, and 300 μL of the 40× stock was dispensed into the appropriate well in Column 1 of the mother plates. The Biomek 2000 was used to make serial serial 2-fold dilutions through Column 11 in the “mother plate”. The wells of Column 12 contained no drug and served as the organism growth control wells.
(§4) The daughter plates were loaded with 185 μL per well of RPMI described above using the Multidrop 384. The daughter plates were prepared using the Biomek FX which transferred 5 μL of drug solution from each well of a mother plate to the corresponding well of the daughter plate in a single step.
(§5) A standardized inoculum of each organism was prepared. For Candida, colonies were picked from the streak plate and a suspension was prepared in RPMI medium equal to a 0.5 McFarland standard, then diluted 1:100 in RPMI and transferred to compartments of sterile reservoirs divided by length (Beckman Coulter). For the Aspergillus isolates, previously prepared and quantitated suspensions were used to make dilutions in RPMI to reach 20× the final concentration. These dilutions were also transferred to compartments of sterile reservoirs divided by length (Beckman Coulter). The final concentration of the Aspergillus isolates was approximately 0.2-2.5×10^4 CFU/mL.
(§6) The Biomek 2000 was used to inoculate the plates. Daughter plates were placed on the Biomek 2000 work surface reversed so that inoculation took place from low to high drug concentration. The Biomek 2000 delivered 10 μL of standardized inoculum into each well. Thus, the wells of the daughter plates ultimately contained 185 μL of RPMI, 5 μL of drug solution, and 10 μL of inoculum. The final concentration of DMSO in the test well was 2.5% for the evaluated comparators and 1.25% for the investigational agents.
(§7) Plates were stacked 3 high, covered with a lid on the top plate, placed into plastic bags, and incubated at 35° C. for approximately 24-48 hr prior to reading. Plates were read when inoculum was confluent in growth wells. Plates were viewed from the bottom using a plate viewer. […] MICs were read where visible growth of the organism was inhibited. MECs were read where the growth shifted to a small, rounded, compact hyphal form as compared to the hyphal growth seen in the growth control well.

C. glabrata ATCC 90030 = assay: microbe, parasite or virus in culture
Experimental: as §1, §2, §3, §4, §5, §6, §7

C. krusei ATCC 14243 = assay: microbe, parasite or virus in culture
Experimental: as §1, §2, §3, §4, §5, §6, §7

[1] = system: C. parapsilosis ATCC 22019; assay: microbe, parasite or virus in culture
Experimental: as §1, §2, §3, §4, §5, §6, §7

A. flavus MX 5948 = assay: MEC assay (Example 31); conditions: RPMI pH 7.0, 35° C., 24-48 hr
Experimental: as §1, §2, §3, §4, §5, §6, §7

A. fumigatus ATCC 13073 = assay: MEC assay (Example 31); conditions: RPMI pH 7.0, 35° C., 24-48 hr
Experimental: as §1, §2, §3, §4, §5, §6, §7

A. fumigatus MX 5944 = assay: MEC assay (Example 31); conditions: RPMI pH 7.0, 35° C., 24-48 hr
Experimental: as §1, §2, §3, §4, §5, §6, §7

A. fumigatus MYA-3626 = assay: MEC assay (Example 31); conditions: RPMI pH 7.0, 35° C., 24-48 hr
Experimental: as §1, §2, §3, §4, §5, §6, §7

A. fumigatus MYA-4609 = assay: MEC assay (Example 31); conditions: RPMI pH 7.0, 35° C., 24-48 hr
Experimental: as §1, §2, §3, §4, §5, §6, §7

MIC (C. albicans ATCC 90028; ATCC 90028, pH 7) | MIC (C. glabrata ATCC 90030; ATCC 90030, pH 7) | MIC (C. krusei ATCC 14243; ATCC 14243, pH 7) | MIC ([1]; ATCC 22019, pH 7) | MIC (C. albicans ATCC 90028; Candida albicans, ATCC90028, C. albicans ATCC 90028, RPMI pH 7.0, 35° C., 24-48 hr, read-out: MIC) | MIC (C. glabrata ATCC 90030; Nakaseomyces glabratus, ATCC90030, C. glabrata ATCC 90030, RPMI pH 7.0, 35° C., 24-48 hr, read-out: MIC) | MIC (C. krusei ATCC 14243; Pichia kudriavzevii, ATCC14243, C. krusei ATCC 14243, RPMI pH 7.0, 35° C., 24-48 hr, read-out: MIC) | MIC ([1]; Lodderomyces parapsilosis, ATCC22019, C. parapsilosis ATCC 22019, RPMI pH 7.0, 35° C., 24-48 hr, read-out: MIC) | SMILES | MIC (C. albicans ATCC 90028; C. albicans ATCC 90028, RPMI pH 7.0, 35° C., 24-48 hr) | MIC (C. glabrata ATCC 90030; C. glabrata ATCC 90030, RPMI pH 7.0, 35° C., 24-48 hr) | MIC (C. krusei ATCC 14243; C. krusei ATCC 14243, RPMI pH 7.0, 35° C., 24-48 hr) | MIC ([1]; C. parapsilosis ATCC 22019, RPMI pH 7.0, 35° C., 24-48 hr) | MEC (A. flavus MX 5948) | MEC (A. fumigatus ATCC 13073) | MEC (A. fumigatus MX 5944) | MEC (A. fumigatus MYA-3626) | MEC (A. fumigatus MYA-4609)
– | – | – | – | – | – | – | – | CC[C@H](C)C[C@H](C)CCCCCCCCC(=O)N[C@H]1C[C@@H](O)[C@@H](NCCNC(=O)C(Cc2ccccc2)NC(=O)C(CC(C)C)NC(=O)C(CCSC)NC(=O)Nc2ccc(Cl)cc2)NC(=O)[C@@H]2[C@@H](O)CCN2C(=O)[C@H]([C@H](O)CCN)NC(=O)[C@H]([C@H](O)[C@@H](O)c2ccc(O)cc2)NC(=O)[C@@H]2C[C@@H](O)CN2C(=O)[C@H]([C@@H](C)O)NC1=O (stereo partly drawn) [Compound 13a] | 2 µg/mL (≈ 1.22 µM) | 8 µg/mL (≈ 4.88 µM) | 16 µg/mL (≈ 9.77 µM) | 32 µg/mL (≈ 19.5 µM) | – | – | – | – | –
2 µg/mL (≈ 1.21 µM) | 4 µg/mL (≈ 2.42 µM) | 8 µg/mL (≈ 4.83 µM) | >16 µg/mL | – | – | – | – | CC[C@H](C)C[C@H](C)CCCCCCCCC(=O)N[C@H]1C[C@@H](O)[C@@H](NCCNC(=O)CCNC(=O)[C@H](Cc2ccccc2)NC(=O)[C@H](CC(C)C)NC(=O)[C@H](CCSC)NC(=O)OCC(C)C)NC(=O)[C@@H]2[C@@H](O)CCN2C(=O)[C@H]([C@H](O)CCN)NC(=O)[C@H]([C@H](O)[C@@H](O)c2ccc(O)cc2)NC(=O)[C@@H]2C[C@@H](O)CN2C(=O)[C@H]([C@@H](C)O)NC1=O [Compound 6] | – | – | – | – | – | – | – | – | –
0.12 µg/mL (≈ 0.096 µM) | 0.5 µg/mL (≈ 0.4 µM) | 2 µg/mL (≈ 1.6 µM) | 1 µg/mL (≈ 0.8 µM) | – | – | – | – | CC[C@H](C)C[C@H](C)CCCCCCCCC(=O)N[C@H]1C[C@@H](O)[C@@H](NCCN)NC(=O)[C@@H]2[C@@H](O)CCN2C(=O)[C@H]([C@H](O)CCNC(=O)[C@H](CCCCN)NC=O)NC(=O)[C@H]([C@H](O)[C@@H](O)c2ccc(O)cc2)NC(=O)[C@@H]2C[C@@H](O)CN2C(=O)[C@H]([C@@H](C)O)NC1=O [Compound 25] | – | – | – | – | – | – | – | – | –
2 µg/mL (≈ 1.25 µM) | 8 µg/mL (≈ 5.01 µM) | 16 µg/mL (≈ 10 µM) | 32 µg/mL (≈ 20 µM) | – | – | – | – | CC[C@H](C)C[C@H](C)CCCCCCCCC(=O)N[C@H]1C[C@@H](O)[C@@H](NCCN)NC(=O)[C@@H]2[C@@H](O)CCN2C(=O)[C@H]([C@H](O)CCNC(=O)CCNC(=O)[C@H](Cc2ccccc2)NC(=O)[C@H](CC(C)C)NC(=O)[C@H](CCSC)NC(C)=O)NC(=O)[C@H]([C@H](O)[C@@H](O)c2ccc(O)cc2)NC(=O)[C@@H]2C[C@@H](O)CN2C(=O)[C@H]([C@@H](C)O)NC1=O [Compound 7] | – | – | – | – | 1 µg/mL | 1 µg/mL | 1 µg/mL | 0.5 µg/mL | 0.5 µg/mL
– | – | – | – | 0.06 to 0.5 µg/mL (≈ 0.172 to 1.43 µM) | 0.12 to 0.25 µg/mL (≈ 0.344 to 0.716 µM) | 0.25 to 1 µg/mL (≈ 0.716 to 2.86 µM) | 0.03 to 0.06 µg/mL (≈ 0.0859 to 0.172 µM) | C[C@@H](c1ncncc1F)[C@](O)(Cn1cncn1)c1ccc(F)cc1F [voriconazole, reference compound] | – | – | – | – | 0.25 to 2 µg/mL | 0.012-0.5^ μg/mL | 0.12 to 0.25 µg/mL | 0.12 to 0.5 µg/mL | 0.25 to 0.5 µg/mL
